{"source": "patent US20120071475A1", "about": "“UREA DERIVATIVES HAVING PI3K-INHIBITING ACTIVITY” (SHIONOGI & CO., LTD., priority 2009, published 2012)", "key": {"PI3Kγ": {"molecular_target": "PI3Kγ (Homo sapiens, UniProt P48736)", "sequence (P48736 whole entry, species assumed)": "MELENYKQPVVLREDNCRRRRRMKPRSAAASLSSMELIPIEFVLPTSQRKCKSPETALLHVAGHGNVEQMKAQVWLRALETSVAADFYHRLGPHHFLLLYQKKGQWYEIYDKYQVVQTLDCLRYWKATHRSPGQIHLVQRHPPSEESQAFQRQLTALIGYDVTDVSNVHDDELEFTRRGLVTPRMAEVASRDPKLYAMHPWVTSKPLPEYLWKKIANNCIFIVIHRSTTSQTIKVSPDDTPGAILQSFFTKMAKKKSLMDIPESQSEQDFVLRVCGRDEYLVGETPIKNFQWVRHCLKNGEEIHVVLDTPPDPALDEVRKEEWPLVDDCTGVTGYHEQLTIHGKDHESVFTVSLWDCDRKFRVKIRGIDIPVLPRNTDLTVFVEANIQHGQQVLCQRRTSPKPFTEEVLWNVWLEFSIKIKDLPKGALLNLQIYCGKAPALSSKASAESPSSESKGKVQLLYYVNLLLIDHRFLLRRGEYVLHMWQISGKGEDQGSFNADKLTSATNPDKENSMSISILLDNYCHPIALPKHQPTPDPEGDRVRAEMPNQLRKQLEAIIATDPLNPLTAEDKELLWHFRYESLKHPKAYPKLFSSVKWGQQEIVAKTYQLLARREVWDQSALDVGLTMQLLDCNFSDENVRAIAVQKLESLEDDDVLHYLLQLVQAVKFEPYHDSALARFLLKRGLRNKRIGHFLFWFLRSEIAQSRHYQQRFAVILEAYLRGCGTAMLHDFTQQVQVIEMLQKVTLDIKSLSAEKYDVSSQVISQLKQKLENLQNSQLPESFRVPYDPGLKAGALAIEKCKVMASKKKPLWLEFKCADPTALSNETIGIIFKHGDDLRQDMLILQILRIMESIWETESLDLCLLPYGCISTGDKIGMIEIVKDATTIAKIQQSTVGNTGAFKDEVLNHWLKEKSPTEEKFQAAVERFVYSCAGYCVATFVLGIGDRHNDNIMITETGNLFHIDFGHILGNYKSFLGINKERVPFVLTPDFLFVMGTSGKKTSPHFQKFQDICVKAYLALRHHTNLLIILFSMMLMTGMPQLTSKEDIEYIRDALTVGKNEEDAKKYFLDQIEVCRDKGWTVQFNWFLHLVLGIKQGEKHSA", "assay": "PI3Kγ inhibitory activity (PI3-kinase HTRF assay, inhibition ratio)", "assay_type": "biochemical", "conditions": "0.5 h, compound at 10 μmol/L; read-out: PI3Kg Inhibition Ratio % (10 μM)", "procedure,_shortened": "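Compound at 10 μmol/L preincubated 10 min with PI3Kγ and PIP2 substrate, then reacted with ATP for 30 minutes at room temperature; the compound, substrate and ATP figures as printed (40 μmol/L each) are solution concentrations. HTRF 665/620 nm ratio read after 18 hours. Inhibition ratio calculated against no-compound (100%) and no-enzyme (0%) controls.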"}, "AKT phosphorylation": {"system": "AKT phosphorylation", "assay": "AKT phosphorylation inhibitory activity in MCP-1 stimulated THP-1 cells (sandwich ELISA)", "assay_type": "cell-based, Human", "conditions": "Homo sapiens, compound at 1 μmol/L, MCP-1 stimulation, read-out: AKT phosphorylation inhibition ratio", "procedure,_shortened": "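THP-1 cells (6.7×10^6/mL in HBSS) were preincubated with compound at 1 μmol/L for 5 min at 37 °C, then stimulated for 60 s with HBSS containing 1.2 μg/mL MCP-1 and lysed. Phospho-Akt Ser473/AKT1 sandwich ELISA was read at A450. % inhibition: no compound = 100% activity, no MCP-1 = 0%.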"}, "[1]": {"assay": "Metabolic stability test (pooled human liver microsome)", "assay_type": "in vitro ADME", "conditions": "percentage of test compound remained after 30 minutes, pooled human liver microsome 0.5 mg protein/mL, 1 mmol/L NADPH, 37° C., compound 0.5 μM", "procedure,_shortened": "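Pooled human liver microsomes (0.5 mg protein/mL) incubated with compound and 1 mmol/L NADPH at 37° C. in pH 7.4 Tris buffer for 0 or 30 min. Parent quantified by LC/MS/MS after methanol/acetonitrile quench; value is % remaining at 30 min versus 0 min.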"}, "[2]": {"molecular_target": "T1, human ether-a-go-go related gene (hERG) channel (Homo sapiens, UniProt Q12809)", "T1 construct": "expressed in transfected cells; host or cells: HEK293", "T1 sequence (Q12809 whole entry)": "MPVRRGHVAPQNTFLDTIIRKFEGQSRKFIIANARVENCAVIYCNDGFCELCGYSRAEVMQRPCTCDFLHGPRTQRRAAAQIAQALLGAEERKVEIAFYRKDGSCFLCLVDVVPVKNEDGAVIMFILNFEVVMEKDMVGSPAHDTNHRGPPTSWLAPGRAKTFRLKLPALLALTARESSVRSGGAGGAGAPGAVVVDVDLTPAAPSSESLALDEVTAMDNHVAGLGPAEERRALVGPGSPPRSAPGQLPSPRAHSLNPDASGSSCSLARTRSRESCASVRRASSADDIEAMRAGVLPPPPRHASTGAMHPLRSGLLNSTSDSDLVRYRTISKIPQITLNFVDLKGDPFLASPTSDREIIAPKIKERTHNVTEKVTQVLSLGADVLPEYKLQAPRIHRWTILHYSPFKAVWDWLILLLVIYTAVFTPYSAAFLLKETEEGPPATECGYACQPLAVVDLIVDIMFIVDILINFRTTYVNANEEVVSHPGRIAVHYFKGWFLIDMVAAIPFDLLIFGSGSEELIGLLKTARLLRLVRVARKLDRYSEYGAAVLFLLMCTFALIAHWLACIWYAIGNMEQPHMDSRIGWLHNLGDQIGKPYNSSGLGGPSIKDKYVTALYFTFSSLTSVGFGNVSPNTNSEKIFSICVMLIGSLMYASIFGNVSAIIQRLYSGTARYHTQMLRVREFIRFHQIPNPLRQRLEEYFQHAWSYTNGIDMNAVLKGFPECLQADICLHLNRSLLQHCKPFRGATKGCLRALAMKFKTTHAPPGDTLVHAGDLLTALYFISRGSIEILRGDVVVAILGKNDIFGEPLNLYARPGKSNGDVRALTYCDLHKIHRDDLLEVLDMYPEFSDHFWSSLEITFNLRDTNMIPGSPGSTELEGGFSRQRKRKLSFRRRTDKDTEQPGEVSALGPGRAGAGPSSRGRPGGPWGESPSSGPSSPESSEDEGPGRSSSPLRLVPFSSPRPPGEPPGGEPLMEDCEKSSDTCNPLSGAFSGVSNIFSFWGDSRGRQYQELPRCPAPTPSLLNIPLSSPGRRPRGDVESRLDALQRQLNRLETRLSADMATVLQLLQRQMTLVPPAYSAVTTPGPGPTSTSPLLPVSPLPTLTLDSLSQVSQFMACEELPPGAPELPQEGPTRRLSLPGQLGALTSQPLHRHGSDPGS", "assay": "hERG test (whole-cell patch-clamp, IKr in HEK293 cells)", "assay_type": "cell-based", "conditions": "inhibition of maximum tail current (IKr), HEK293 cell expressing hERG, compound 1 μM, 10 minutes; 1 µM", "procedure,_shortened": "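hERG-expressing HEK293 cells, automated whole-cell patch clamp: hold −80 mV, +50 mV for 2 s, then −50 mV for 2 s to record IKr tail current. Compound in extracellular solution (pH 7.4) for 10 min at room temperature; inhibition of maximum tail current calculated versus pre-application and compared with 0.1% DMSO vehicle.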"}, "CYP3A4": {"molecular_target": "T2, CYP3A4 (Homo sapiens, UniProt P08684)", "T2 construct": "host or cells: E. coli", "T2 sequence (P08684 whole entry)": "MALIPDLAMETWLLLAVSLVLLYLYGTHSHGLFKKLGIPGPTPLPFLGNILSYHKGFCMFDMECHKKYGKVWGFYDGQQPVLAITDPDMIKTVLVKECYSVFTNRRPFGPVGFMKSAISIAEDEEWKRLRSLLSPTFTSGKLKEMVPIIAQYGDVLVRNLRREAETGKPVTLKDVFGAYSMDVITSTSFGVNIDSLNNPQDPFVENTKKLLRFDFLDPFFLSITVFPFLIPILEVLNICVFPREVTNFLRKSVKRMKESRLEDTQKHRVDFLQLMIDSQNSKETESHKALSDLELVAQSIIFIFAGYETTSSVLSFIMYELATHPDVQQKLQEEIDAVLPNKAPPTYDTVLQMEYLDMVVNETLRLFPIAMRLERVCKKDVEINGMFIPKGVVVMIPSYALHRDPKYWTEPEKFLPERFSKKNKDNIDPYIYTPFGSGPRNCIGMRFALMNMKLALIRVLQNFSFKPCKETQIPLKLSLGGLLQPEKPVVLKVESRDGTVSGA", "assay": "CYP3A4 fluorescence MBI test", "assay_type": "in vitro ADME", "conditions": "difference in IC50 with 0 or 30 minutes pre-reaction; CYP3A4 expressed in E. coli, substrate 7-BFC", "procedure,_shortened": "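E. coli-expressed CYP3A4 debenzylating 5.6 μmol/L 7-BFC to fluorescent 7-HFC (Ex 420/Em 535 nm) in K-Pi pH 7.4 at 25° C, 15 min reaction. NADPH pre-incubation of 0 or 30 min, with 10-fold dilution before reaction. IC50 from 0.625–20 μmol/L (6 points); (+) for an IC50 shift ≥5 μmol/L, (−) for ≤3 μmol/L.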"}, "[3]": {"assay": "BA test (oral absorbability, bioavailability)", "assay_type": "in vivo", "description": "An experimental material and a method for examining oral absorbability\n(1) Animals used: rats or mice were used. (2) Breeding condition: chow and sterilized tap water were allowed to be taken in freely. (3) Setting of a dosage and grouping: a predetermined dosage was administered orally or intravenously. Groups were formed as shown below. (A dosage varied depending on each compound)\nOral administration 1-30 mg/kg (n=2 to 3)\nIntravenous administration 0.5-10 mg/kg (n=2 to 3)\n(4) Preparation of administered liquid: In oral administration, a solution or suspension was administered. In intravenous administration, after solubilization, the administration was performed. (5) Method of Administration: In oral administration, compulsory administration to the stomach was conducted using an oral probe. In intravenous administration, administration from the caudal vein was conducted using a syringe with an injection needle. (6) Evaluation item: Blood was chronologically collected, and then the drug concentration in blood plasma was measured using a LC/MS/MS. (7) Statistical analysis: With regard to a shift in plasma concentration, the plasma concentration-time area under the curve (AUC) was calculated using a nonlinear least-squares program WinNonlin®. Bioavailability (BA) was calculated from the AUCs of the oral administration group and the intravenous administration group, respectively."}}}
{"smiles": "COc1cc(N2CCc3nc(NC(=O)Nc4ccccc4C(=O)NC(C)C(O)C(F)(F)F)sc3C2)nc(OC)n1", "note": "(stereo not drawn) [Compound I-138]", "values": [{"measurement": "inhibition at 10 µM", "setting": "PI3Kγ", "result": "≥ 95", "unit": "%"}, {"measurement": "inhibition at 1 µM", "setting": "AKT phosphorylation", "result": "≥ 95", "unit": "%"}, {"measurement": "hLMS_ox(at 0.5 μM) %", "setting": "[1]", "result": 82.6, "unit": "%"}, {"measurement": "hERG(at 1 μM) % Inhibition", "setting": "[2]", "result": 2.8, "unit": "%"}]}
{"smiles": "COc1cc(N2CCc3nc(NC(=O)Nc4ccccc4C(=O)NC(C)C)sc3C2)ccn1", "note": "[Compound I-52]", "values": [{"measurement": "MBI", "setting": "CYP3A4", "result": "(−) (When 3 μmol/L or less, the compound is shown as (−))"}, {"measurement": "BA (Rat, 1 mg/kg, Methylcellulose suspension Oral Administration)", "setting": "[3]", "result": 40.9, "unit": "%"}]}
